Measurements from patent US10294202B2, “Pyrrolidinones as herbicides” (FMC Corporation, priority 2013, dated 2019).

How the values were obtained:
barnyardgrass [1] = assay: Test A pre-/postemergence herbicide test; assay type: in vivo, Echinochloa crus-galli
Outline: (§1)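 Approximately 10 days after treatment in the greenhouse, plants were compared with untreated controls and given a 0–100 visual injury rating. Applications: preemergence directed soil spray; postemergence on 2–10 cm plants at the one- to two-leaf stage.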

kochia = assay: Test A pre-/postemergence herbicide test; assay type: in vivo, Kochia scoparia
Outline: as §1

ragweed = assay: Test A pre-/postemergence herbicide test; assay type: in vivo, Ambrosia elatior
Outline: as §1

ryegrass, Italian = assay: Test A pre-/postemergence herbicide test; assay type: in vivo, Lolium multiflorum
Outline: as §1

giant foxtail = assay: Test A pre-/postemergence herbicide test; assay type: in vivo, Setaria faberii
Outline: as §1

pigweed = assay: Test A pre-/postemergence herbicide test; assay type: in vivo, Amaranthus retroflexus
Outline: as §1

wheat = assay: Test A pre-/postemergence herbicide test; assay type: in vivo, Triticum aestivum; settings: Postemergence
Outline: as §1

corn = assay: Test A pre-/postemergence herbicide test; assay type: in vivo, Zea mays; settings: Postemergence
Outline: as §1

blackgrass = assay: Test A postemergence herbicide test; assay type: in vivo, Alopecurus myosuroides
Outline: (§2)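 Plants at the one- to two-leaf stage, 2–10 cm tall, grown in loam/sand pots, received postemergence sprays of the test chemicals. After about 10 days in the greenhouse, injury was scored visually against untreated controls on a 0–100 scale (0 none, 100 complete control).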

galium = assay: Test A postemergence herbicide test; assay type: in vivo, Galium aparine
Outline: as §2

rice = assay: Test B flooded paddy test; assay type: in vivo, Oryza sativa; settings: 500 g ai/ha, Flood; scale of 0 to 100 where 0 is no effect and 100 is complete control
Outline: (§3)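 In-water application to pots flooded 3 cm deep, plants at 2-leaf stage. Held in greenhouse 13–15 days at constant flood depth. Scored 0–100 by eye against controls.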

sedge, umbrella = assay: Test B flooded paddy test; assay type: in vivo, Cyperus difformis; settings: 500 g ai/ha, Flood; scale of 0 to 100 where 0 is no effect and 100 is complete control
Outline: as §3

ducksalad = assay: Test B flooded paddy test; assay type: in vivo, Heteranthera limosa; settings: 500 g ai/ha, Flood; scale of 0 to 100 where 0 is no effect and 100 is complete control
Outline: as §3

barnyardgrass [2] = assay: Test B flooded paddy test; assay type: in vivo, Echinochloa crus-galli; settings: 500 g ai/ha, Flood; scale of 0 to 100 where 0 is no effect and 100 is complete control
Outline: as §3

[3] = Postemergence, 125 g ai/ha, visual rating on 0 to 100 scale (0 no effect, 100 complete control), approx. 10 days
[4] = Postemergence, 500 g ai/ha, 0 to 100 scale (0 no effect, 100 complete control)
[5] = Preemergence, 125 g ai/ha, 0 to 100 scale where 0 is no effect and 100 is complete control
[6] = Preemergence, 500 g ai/ha, visual rating on 0 to 100 scale (0 no effect, 100 complete control)
[7] = 125 g ai/ha, visual rating on 0 to 100 scale (0 no effect, 100 complete control), approx. 10 days
[8] = 500 g ai/ha, 0 to 100 scale (0 no effect, 100 complete control)

| Compound | Plant response rating, Barnyardgrass (barnyardgrass [1]; [3]) | Plant response rating, Barnyardgrass (barnyardgrass [1]; [4]) | Plant response rating, Barnyardgrass (barnyardgrass [1]; [5]) | Barnyardgrass plant response rating (barnyardgrass [1]; [6]) | Plant response rating, Kochia (kochia; [3]) | Plant response rating, Kochia (kochia; [5]) | Kochia plant response rating (kochia; [6]) | Plant response rating, Ragweed (ragweed; [3]) | Ragweed plant response rating (ragweed; [6]) | Plant response rating, Ryegrass, Italian (ryegrass, Italian; [3]) | Plant response rating, Ryegrass, Italian (ryegrass, Italian; [5]) | Ryegrass, Italian plant response rating (ryegrass, Italian; [6]) | Plant response rating, Foxtail, Giant (giant foxtail; [3]) | Plant response rating, Foxtail, Giant (giant foxtail; [4]) | Plant response rating, Foxtail, Giant (giant foxtail; [5]) | Foxtail, Giant plant response rating (giant foxtail; [6]) | Plant response rating, Pigweed (pigweed; [3]) | Plant response rating, Pigweed (pigweed; [5]) | Pigweed plant response rating (pigweed; [6]) | Plant response rating, Wheat (wheat; [7]) | further results |
| --- | --- | --- | --- | --- | --- | --- | --- | --- | --- | --- | --- | --- | --- | --- | --- | --- | --- | --- | --- | --- | --- |
| O=C1NCC(c2cccc(Oc3ccccc3)c2)C1C(=O)Nc1cccc(F)c1F (centres unmarked) [Compound 332] | 40 | 50 | 70 | 80 | 0 | 0 | 0 | 0 | 0 | 0 | 0 | 0 | 30 | 80 | 80 | 90 | 0 | 0 | 0 | 0 | Plant response rating, Kochia (kochia; [4]): 20; Plant response rating, Ragweed (ragweed; [4]): 0; Plant response rating, Ragweed (ragweed; [5]): 0; Plant response rating, Ryegrass, Italian (ryegrass, Italian; [4]): 20; Plant response rating, Pigweed (pigweed; [4]): 0; Plant response rating, Wheat (wheat; [8]): 20; Plant response rating, Corn (corn; [7]): 0; Plant response rating, Corn (corn; [8]): 0; Plant response rating, Blackgrass (blackgrass; [7]): 0; Plant response rating, Blackgrass (blackgrass; [8]): 0; Plant response rating, Galium (galium; [7]): 0; Plant response rating, Galium (galium; [8]): 20; Plant response rating, Rice (rice): 0; Plant response rating, Sedge, Umbrella (sedge, umbrella): 0; Plant response rating, Ducksalad (ducksalad): 75; Plant response rating, Barnyardgrass (barnyardgrass [2]): 40 |
| O=C1NCC(c2cccc(Oc3ccccc3)c2)C1C(=O)Nc1ccc(F)c(F)c1F (centres unmarked) [Compound 333] | 20 | 60 | 50 | 90 | 0 | 0 | 0 | 0 | 0 | 0 | 0 | 20 | 50 | 80 | 80 | 90 | 0 | 0 | 0 | 0 | Plant response rating, Kochia (kochia; [4]): 20; Plant response rating, Ragweed (ragweed; [4]): 20; Plant response rating, Ragweed (ragweed; [5]): 0; Plant response rating, Ryegrass, Italian (ryegrass, Italian; [4]): 30; Plant response rating, Pigweed (pigweed; [4]): 20; Plant response rating, Wheat (wheat; [8]): 20; Plant response rating, Corn (corn; [7]): 0; Plant response rating, Corn (corn; [8]): 20; Plant response rating, Blackgrass (blackgrass; [7]): 0; Plant response rating, Blackgrass (blackgrass; [8]): 30; Plant response rating, Galium (galium; [7]): 0; Plant response rating, Galium (galium; [8]): 40; Plant response rating, Rice (rice): 0; Plant response rating, Sedge, Umbrella (sedge, umbrella): 0; Plant response rating, Ducksalad (ducksalad): 20; Plant response rating, Barnyardgrass (barnyardgrass [2]): 0 |
| O=C1NCC(c2cccc(Oc3ccccc3)c2)C1C(=O)Nc1ccccc1Cl (centres unmarked) [Compound 334] | 0 | 0 | 0 | 0 | 0 | 0 | 0 | 0 | 0 | 0 | 0 | 0 | 0 | 10 | 0 | 50 | 0 | 0 | 0 | 0 | Plant response rating, Kochia (kochia; [4]): 0; Plant response rating, Ragweed (ragweed; [4]): 0; Plant response rating, Ragweed (ragweed; [5]): 0; Plant response rating, Ryegrass, Italian (ryegrass, Italian; [4]): 0; Plant response rating, Pigweed (pigweed; [4]): 0; Plant response rating, Wheat (wheat; [8]): 0; Plant response rating, Corn (corn; [7]): 0; Plant response rating, Corn (corn; [8]): 0; Plant response rating, Blackgrass (blackgrass; [7]): 0; Plant response rating, Blackgrass (blackgrass; [8]): 0; Plant response rating, Galium (galium; [7]): 0; Plant response rating, Galium (galium; [8]): 0; Plant response rating, Rice (rice): 0; Plant response rating, Sedge, Umbrella (sedge, umbrella): 0; Plant response rating, Ducksalad (ducksalad): 40; Plant response rating, Barnyardgrass (barnyardgrass [2]): 30 |
| O=C1NCC(c2cccc(-n3cccn3)c2)C1C(=O)Nc1cccc(F)c1F (centres unmarked) [Compound 337] | 0 | 50 | 0 | 20 | 0 | 0 | 0 | 0 | 0 | 0 | 0 | 0 | 0 | 40 | 0 | 30 | 0 | 0 | 0 | 0 | Plant response rating, Ragweed (ragweed; [5]): 0; Plant response rating, Corn (corn; [7]): 0; Plant response rating, Corn (corn; [8]): 0; Plant response rating, Blackgrass (blackgrass; [7]): 0; Plant response rating, Blackgrass (blackgrass; [8]): 0; Plant response rating, Galium (galium; [7]): 0; Plant response rating, Rice (rice): 0; Plant response rating, Sedge, Umbrella (sedge, umbrella): 0; Plant response rating, Ducksalad (ducksalad): 0; Plant response rating, Barnyardgrass (barnyardgrass [2]): 0 |
| O=C1NCC(c2ccc(Br)c(Br)c2)C1C(=O)Nc1cccc(F)c1F (centres unmarked) [Compound 341] | 30 | 50 | 50 | 80 | 0 | 0 | 0 | 0 | 0 | 0 | 0 | 0 | 50 | 70 | 80 | 90 | 0 | 0 | 0 | 0 | Plant response rating, Ragweed (ragweed; [5]): 0; Plant response rating, Corn (corn; [7]): 0; Plant response rating, Corn (corn; [8]): 30; Plant response rating, Blackgrass (blackgrass; [7]): 0; Plant response rating, Blackgrass (blackgrass; [8]): 0; Plant response rating, Galium (galium; [7]): 0; Plant response rating, Rice (rice): 0; Plant response rating, Sedge, Umbrella (sedge, umbrella): 0; Plant response rating, Ducksalad (ducksalad): 0; Plant response rating, Barnyardgrass (barnyardgrass [2]): 0 |
| O=C1NCC(c2ccc(OC(F)F)cc2)C1C(=O)Nc1ccccc1C(F)(F)F (centres unmarked) [Compound 348] | 20 | 50 | 30 | 60 | 20 | 0 | 70 | 0 | 30 | 0 | 0 | 0 | 70 | 90 | 90 | 90 | 0 | 20 | 50 | 0 | Plant response rating, Corn (corn; [7]): 0; Plant response rating, Corn (corn; [8]): 0; Plant response rating, Blackgrass (blackgrass; [7]): 20; Plant response rating, Blackgrass (blackgrass; [8]): 30; Plant response rating, Galium (galium; [7]): 0; Plant response rating, Rice (rice): 0; Plant response rating, Sedge, Umbrella (sedge, umbrella): 0; Plant response rating, Ducksalad (ducksalad): 100; Plant response rating, Barnyardgrass (barnyardgrass [2]): 40 |
